Measured values: patent publication US20170367996A1, “Use Of Xanthophyll Carotenoids To Improve Visual Performance And Neural Efficiency” (University of Georgia Research Foundation, Inc., priority 2011, published 2017)

Legend:
Assay type in all cases: in vivo, human
[1] = tested on: college baseball players; assay: Macular pigment optical density (MPOD) by customized heterochromatic flicker photometry, zeaxanthin supplementation study; conditions: for MPOD (Example 2, preliminary data): 20 mg/d supplementation ongoing
Protocol: (§1) Subjects: Seven college baseball players (M=20.3±0.58 years), supplemented with 20 mg/Z/day for 3-months, participated in this study. The visual function parameters MPOD, disability glare, photostress recovery time, and contrast enhancement were determined. The neural efficiency parameters Fixed Reaction Time (FRT); Variable Reaction Time (VRT); and Coincidence Anticipation Timing (CAT) were determined.
• Customized HFP [3]—Macular Metrics Corp., Providence, R.I.,

[2] = tested on: college baseball players; assay: Photostress recovery time (PR); conditions: 20 mg/Z/day for 3-months; supplemented subjects
Protocol: as §1
(§2) Stimuli presented in three-channel Maxwellian-view optical system (1 kW xenon-arc light source).
• 570 nm target (100% contrast; 5 cpd). • 5 second exposure to bleaching photostressor (5° diameter disk; xenon-white light of log 2.5 μW/cm2 intensity). • Threshold: time to recover visibility of target.

[3] = tested on: college baseball players; assay: Glare disability (GL); conditions: 20 mg/Z/day for 3-months
Protocol: as §1, §2
(§3) • 570 nm target (100% contrast, 5 cycles per degree—cpd); 10° inner, 12° outer diameter annulus comprised of broad-band xenon light (see FIG. 1 a). • Threshold: intensity of annulus required to completely veil target.

[4] = tested on: college baseball players; assay: Contrast enhancement (CE); conditions: 20 mg/Z/day for 3-months
Protocol: as §1, §2
(§4) • 600 nm target (100% contrast grating, 5 cpd); 460 nm surround (see FIG. 1A(b)). • Threshold: intensity of background required to obscure edge between target and surround.

[5] = tested on: college baseball players; assay: Fixed and variable position reaction time (FRT/VRT); conditions: 20 mg/Z/day for 3-months
Protocol: as §1
• Task: button press in response to LED repeatedly presented at same position (FRT) or random location (VFT) along the 120 LED linear track. • 60 trials; inter-trial intervals varied between 1000-3000 ms

[6] = tested on: college baseball players; assay: Coincidence anticipation timing (CAT); conditions: 20 mg/Z/day for 3-months; at the highest frequency
Protocol: as §1
• Task: button press to indicate when a light bar (traveling along 120 LED linear track) reached a specified point. • Velocity randomly varied between 5, 10, 15, and 20 MPH (15 trials for each speed, randomly presented; inter-trial intervals randomly varied between 1000-3000 ms).

[7] = tested on: college baseball players; assay: Static and dynamic visual performance after zeaxanthin supplementation (Example 2); conditions: 20 mg/d supplementation ongoing; preliminary data
From the text: Baseball performance requires the ability to perceive and react to temporally varying stimuli under lighting conditions that are known to be most detrimental to visual function (i.e., short-wave light). Macular pigment (MP) lutein (L) and zeaxanthin (Z) in the retina—is known to improve performance under such conditions and may also improve neural efficiency. The purpose of this study was to assess static and dynamic visual performance in college baseball players in order to: • a) Define performance ability in athletes and non-athletes matched for age and MP (N=18); and, • b) Improve athletes' performance via supplementation.
as §2, §3, §4
• 570 nm target (100% contrast; 5 cpd). • 5 second exposure to bleaching photostressor (5° diameter disk; xenon-white light of log 2.5 μW/cm2 intensity). • Threshold: time to recover visibility of target. […]

For `CC1=C(/C=C/C(C)=C/C=C/C(C)=C/C=C/C=C(C)/C=C/C=C(C)/C=C/C2=C(C)C[C@@H](O)CC2(C)C)C(C)(C)C[C@H](O)C1` [Zeaxanthin, zeaxanthin], the “MPOD in supplemented subjects” value ([1]; 20 mg/Z/day for 3-months, three subjects completed) was “increased”, the “MPOD (Example 2, preliminary data)” value [1] was “increases” and the “MPOD (Example 2, preliminary data)” value ([1]; listed as zeaxanthin) was “Increases”. For the same molecule, the “12-week MPOD” value ([1]; one subject, baseline MPOD 0.7 at 30-min of eccentricity, 20 mg/d, 12 weeks) was 0.77, the Photostress recovery time [2] was “decreased” and the “Glare (disability glare)” value [3] was “Early improvements”. The Contrast enhancement [4] was “Early improvements”, the FRT [5] was “improved” and the VRT [5] was “improved”. The CAT accuracy [6] was “improved”, the Dynamic visual performance [7] was “improvement” and the Static visual performance [7] was “improvement”.
